Results published in patent publication US20260176279A1, “DUAL RAF AND TUBULIN INHIBITORS AND METHODS OF USE THEREOF” (Deciphera Pharmaceuticals, LLC, priority 2023, published 2026).
Like-named read-outs stand apart in the source and are kept apart here. Blank lines part the entries; values can stand above or below the molecule they belong to.

Tests used:
B-Raf kinase = molecular target: T1, B-Raf kinase (Homo sapiens, UniProt P15056); assay: Biochemical Assay for B-Raf (coupled pyruvate kinase/lactate dehydrogenase assay)
T1 construct: GST (N); purchased Sigma

C-Raf kinase = molecular target: T2, C-Raf kinase (Homo sapiens, UniProt P04049, Y340D/Y341D); assay: Biochemical Assay for C-Raf (coupled pyruvate kinase/lactate dehydrogenase assay)
T2 construct: C-Raf residues 306-end; Y340D, Y341D with N-; GST (N); purchased Eurofins

HCT-116 cells = assay: HCT-116 Cell Proliferation Assay; type: cell-based; conditions: Homo sapiens
Description: HCT-116 cells (catalog #CCL-247) are obtained from the American Type Culture Collect (ATCC, Manassas, VA). Briefly, cells are grown in McCoy's 5A supplemented with 10% characterized fetal bovine serum (Invitrogen, Carlsbad, CA) and 1% Penicillin/Streptomycin/L-Glutamine at 37° C., 5% CO2, and 95% humidity. Cells are expanded until reaching 70-95% confluency at which point they are sub-cultured or harvested for assay use. A serial dilution of test compound is dispensed into a 384-well black clear bottom plate in triplicate. 375 cells are added per well in 50 μL complete growth medium in the 384-well plate. Plates are incubated for 67 to 72 h at 37° C., 5% CO2, and 95% humidity. At the end of the incubation, 40 μL of a […] solution of resazurin (Sigma, St. Louis, MO) in PBS is added to each well of the plate and plates are incubated for an additional 4 to 5 hours at 37° C., 5% CO2, and 95% humidity. Plates are read on a Synergy2 or equivalent reader (Biotek, Winooski, VT) using an excitation of 540 nm and an emission of 600 nm. Data is analyzed using Prism software (Graphpad, San Diego, CA) to calculate IC50 values.

HPAF-II cells = assay: HPAF-II Cell Proliferation Assay; type: cell-based; conditions: Homo sapiens
Description: HPAF-II cells (catalog #CRL-1997) are obtained from the American Type Culture Collect (ATCC, Manassas, VA). Briefly, cells are grown in Minimum Essential Media supplemented with 10% characterized fetal bovine serum (Invitrogen, Carlsbad, CA) and 1% Penicillin/Streptomycin/L-Glutamine at 37° C., 5% CO2, and 95% humidity. Cells are expanded until reaching 70-95% confluency at which point they are sub-cultured or harvested for assay use. A serial dilution of test compound is dispensed into a 384-well black clear bottom plate in triplicate. 750 cells are added per well in 50 μL complete growth medium in the 384-well plate. Plates are incubated for 115 to 120 h at 37° C., 5% CO2, and 95% humidity. At the end of the incubation, 40 μL of a […] solution of resazurin (Sigma, St. Louis, MO) in PBS is added to each well of the plate and plates are incubated for an additional 18 to 24 h at 37° C., 5% CO2, and 95% humidity. Plates are read on a Synergy2 or equivalent reader (Biotek, Winooski, VT) using an excitation of 540 nm and an emission of 600 nm. Data is analyzed using Prism software (Graphpad, San Diego, CA) to calculate IC50 values.

MiaPaca-2 cells = assay: MiaPaca-2 Cell Proliferation Assay; type: cell-based; conditions: Homo sapiens, MIA PaCa-2
Description: MiaPaca-2 cells (catalog #CRL-1420) are obtained from the American Type Culture Collect (ATTC, Manassas, VA). Briefly, cells were grown in DMEM supplemented with 10% characterized fetal bovine serum (Invitrogen, Carlsbad, CA), 2.5% New Zealand sourced horse serum and 1% Penicillin/Streptomycin/L-Glutamine at 37° C., 5% CO2, and 95% humidity. Cells are expanded until reaching 70-95% confluency at which point they are sub-cultured or harvested for assay use. For assays completed in 96-well plates, a serial dilution of test compound is dispensed into a 96-well black clear bottom plate in triplicate. Three thousand cells are added per well in 200 μL complete growth medium in the 96-well plate. Plates are incubated for 67 to 72 h at 37° C., 5% CO2, and 95% humidity. At the end of the incubation, 40 μL of a […] solution of resazurin (Sigma, St. Louis, MO) in PBS is added to each well of the plate and plates are incubated for an additional 5 to 6 hours at 37° C., 5% CO2, and 95% humidity. For 384-well assays, a threefold, 8-point serial dilution of compound was spotted column wise into a 384 well black, clear bottom, tissue culture treated plate using the Beckman Coulter Echo 650. Likewise, a threefold, 8-point serial dilution of cobimetinib was spotted row wise into the 384 well black, clear bottom plate containing compound. DMSO concentration was constant across all wells at 0.4%. Seven hundred fifty cells are added per well in 50 μL complete growth medium in each 384-well plate. Plates are incubated for 67 to 72 h at 37° C., 5% CO2, and 95% humidity. At the end of the incubation, 10 μL of a 440 μM solution of resazurin (Sigma, St. Louis, MO) in PBS is added to each well of the plate and plates are incubated for an additional 4 to 6 h at 37° C., 5% CO2, and 95% humidity. Plates are read on a Synergy2 or equivalent reader (Biotek, Winooski VT) using an excitation of 540 nm and an emission of 600 nm. Data is analyzed using Prism software (Graphpad, San Diego, CA) to calculate IC50 values.

tubulin = assay: Cellular Tubulin Polymerization Assay (HCT-116 cells); type: cell-based
[1] = HCT-116, Table 4, read-out: HCT-116 IC50
[2] = HPAF-II, Table 4, read-out: HPAF-II IC50
[3] = Table 4, read-out: MiaPaca-2 IC50
[4] = Table 1, inhibition of biochemical activity, read-out: BRAF
[5] = Table 1, inhibition of biochemical activity, read-out: CRAF
[6] = Table 2, inhibition of cell proliferation, read-out: MiaPaca-2
[7] = Table 3, read-out: MiaPaca-2 IC50
[8] = HCT-116, Table 3, read-out: HCT-116 IC50
[9] = HPAF-II, Table 3, read-out: HPAF-II IC50
[10] = Table 3, HCT-116 cells, read-out: Tubulin Cellular IC50

T1 sequence (P15056 416-766): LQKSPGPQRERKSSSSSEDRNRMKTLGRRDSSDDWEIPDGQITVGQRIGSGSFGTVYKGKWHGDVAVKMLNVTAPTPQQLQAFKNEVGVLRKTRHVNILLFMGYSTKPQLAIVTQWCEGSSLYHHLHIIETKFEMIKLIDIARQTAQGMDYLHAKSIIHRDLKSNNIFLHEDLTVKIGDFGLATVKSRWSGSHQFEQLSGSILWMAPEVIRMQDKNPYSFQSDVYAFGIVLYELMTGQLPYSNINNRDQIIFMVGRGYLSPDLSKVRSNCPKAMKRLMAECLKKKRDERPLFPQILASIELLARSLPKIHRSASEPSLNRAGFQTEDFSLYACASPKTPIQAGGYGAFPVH
T2 sequence (P04049 307-648 Y340D/Y341D): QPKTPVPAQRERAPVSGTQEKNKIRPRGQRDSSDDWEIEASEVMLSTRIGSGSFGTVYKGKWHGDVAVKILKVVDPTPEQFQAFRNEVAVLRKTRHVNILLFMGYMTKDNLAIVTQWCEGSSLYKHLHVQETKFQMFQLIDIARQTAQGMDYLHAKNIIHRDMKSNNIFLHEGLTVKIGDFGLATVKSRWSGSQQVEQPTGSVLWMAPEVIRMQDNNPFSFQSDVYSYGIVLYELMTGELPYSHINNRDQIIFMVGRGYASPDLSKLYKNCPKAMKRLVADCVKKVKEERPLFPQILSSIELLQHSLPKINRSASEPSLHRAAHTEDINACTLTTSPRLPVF

IC50 (B-Raf kinase; Table 4, read-out: BRAF IC50): 1000 to 10000 nM
IC50 (C-Raf kinase; Table 4, read-out: CRAF IC50): 1000 to 10000 nM
IC50 (HCT-116 cells; [1]): 1000 to 10000 nM
Compound: Cc1ccc(NC(=O)Nc2cn(C)nc2C(F)(F)F)cc1-c1cc(OCCO)nc(N2CCOCC2)c1 [reference compound]
IC50 (HPAF-II cells; [2]): 1000 to 10000 nM

IC50 (B-Raf kinase; Table 4, read-out: BRAF IC50): < 100 nM
IC50 (C-Raf kinase; Table 4, read-out: CRAF IC50): < 100 nM
IC50 (MiaPaca-2 cells; [3]): 1000 to 10000 nM
IC50 (HCT-116 cells; [1]): 500 to 1000 nM
IC50 (tubulin; Table 4, HCT-116 cells, read-out: Tubulin Cellular IC50): 1000 to 10000 nM
Compound: CC(=O)Nc1cc(-c2cc(-c3cc(NC(=O)NCCC4(C)CC4)c(F)cc3C)ccn2)ccn1 [reference compound]
IC50 (HPAF-II cells; [2]): 500 to 1000 nM

IC50 (MiaPaca-2 cells; [3]): 1000 to 10000 nM
IC50 (HCT-116 cells; [1]): 1000 to 10000 nM
Compound: Cc1cc(F)c(NC(=O)Nc2cnn(C(C)(C)C)c2)cc1-c1cc(OCCN(C)C)nc(N2CCOCC2)c1 [reference compound]
IC50 (HPAF-II cells; [2]): 1000 to 10000 nM

IC50 (B-Raf kinase; [4]): 100 to 500 nM
IC50 (B-Raf kinase; Table 3, read-out: BRAF IC50): 100 to 500 nM
IC50 (C-Raf kinase; [5]): < 100 nM
IC50 (C-Raf kinase; Table 3, read-out: CRAF IC50): 100 to 500 nM
IC50 (MiaPaca-2 cells; [6]): < 100 nM
IC50 (MiaPaca-2 cells; [7]): < 100 nM
IC50 (HCT-116 cells; [8]): < 100 nM
IC50 (HCT-116 cells; Table 2, inhibition of cell proliferation, read-out: HCT-116): < 100 nM
IC50 (tubulin; [10]): < 100 nM
Compound: Cc1ccc(NC(=O)Nc2ccc(C(F)(F)F)nc2)cc1-c1ccnc(N2CCOCC2)c1 [Example 36]
IC50 (HPAF-II cells; [9]): < 100 nM
IC50 (HPAF-II cells; Table 2, inhibition of cell proliferation, read-out: HPAF-II): < 100 nM

IC50 (MiaPaca-2 cells; [3]): 1000 to 10000 nM
IC50 (HCT-116 cells; [1]): 1000 to 10000 nM
Compound: Cc1ccc(NC(=O)NC2CCCCCC2)cc1-c1cc(OCCO)nc(N2CCOCC2)c1 [reference compound]
IC50 (HPAF-II cells; [2]): 1000 to 10000 nM

IC50 (MiaPaca-2 cells; Table 5, read-out: MiaPaca-2): 1000 to 10000 nM
IC50 (HCT-116 cells; Table 5, read-out: HCT-116): 500 to 1000 nM
Compound: Cc1ccc2c(Nc3cccc(Cl)c3F)nccc2c1NC(=O)c1csc2c(N)ncnc12 [Belvarafenib, reference compound]
IC50 (HPAF-II cells; Table 5, read-out: HPAF-II): 1000 to 10000 nM

Compound: C[C@@H](NC(=O)c1ncnc(N)c1Cl)c1ncc(C(=O)Nc2cc(C(F)(F)F)c(Cl)cn2)s1 [Tovorafenib, reference compound]
IC50 (tubulin; read-out: Tubulin Cellular, Table 5, HCT-116 cells): 1000 to 10000 nM

IC50 (B-Raf kinase; Table 4, read-out: BRAF IC50): 1000 to 10000 nM
IC50 (HCT-116 cells; [1]): 1000 to 10000 nM
Compound: Cc1ccc(NC(=O)Nc2cnn(CC(F)(F)F)c2)cc1-c1cc(OCCO)nc(N2CCOCC2)c1 [reference compound]
IC50 (HPAF-II cells; [2]): 1000 to 10000 nM

IC50 (B-Raf kinase; [4]): < 100 nM
IC50 (B-Raf kinase; Table 3, read-out: BRAF IC50): < 100 nM
IC50 (C-Raf kinase; [5]): < 100 nM
IC50 (C-Raf kinase; Table 3, read-out: CRAF IC50): < 100 nM
IC50 (MiaPaca-2 cells; [6]): < 100 nM
IC50 (MiaPaca-2 cells; [7]): < 100 nM
IC50 (HCT-116 cells; [8]): 100 to 500 nM
IC50 (tubulin; [10]): 100 to 500 nM
Compound: Cc1ccc(NC(=O)Nc2ccc(C(F)(F)F)nc2)cc1-c1ccnc(-c2ccnc(NC(=O)CN(C)C)c2)c1 [Example 18]
IC50 (HPAF-II cells; [9]): 100 to 500 nM
